US20250177481A1, “SCO-spondin-derived polypeptides for enhancing synaptic transmission” (AXOLTIS PHARMA, priority 2021, published 2025)
Positions of bridges follow the written chain, without caps; N, C: chain ends. No end group written: not given here.

Assays:
[1] = system: basal excitatory synaptic transmission at CA3-CA1 synapses; assay: fEPSP input-output (I/O) recordings in CA1 of mouse hippocampal slices; format: cell-based, C57Bl6/J mice; conditions: NX218 250 μg/mL; for Normalized fEPSP slope: normalized to max slope in vehicle, mean of 10 slices
Method: Comparison of postsynaptic responses in control versus NX218 peptide conditions were assessed.
Five (C57Bl6/J) male mice 4-5 weeks-old were obtained from Charles River, France and housed in an animal facility. Animal care was compliant with national and local Ethics committee recommendations. Ten Sagittal hippocampal brain slices (2 per mouse) were obtained using standard brain slicing methods (Knobloch et al. 2007). Mice were anesthetized with 5% isoflurane and then decapitated. Brain was dissected out of the cranium and immediately immersed in ice-cold freshly prepared artificial cerebrospinal fluid (aCSF) containing: 124 mM NaCl, 3.75 mM KCl, 2 mM MgSO4, 2 mM CaCl2, 26.5 mM NaHCO3, 1.25 mM NaH2PO4, 10 mM glucose, continuously oxygenated (95% O2, 5% CO2) (pH=7.4) for a total duration of 3-4 minutes. Acute slices (350 μm thick) were prepared using a vibratome (VT 1000S; Leica Microsystems, Bannockburn, IL). Sections were incubated in standard aCSF (124 mM NaCl, 3.75 mM KCl, 2 mM MgSO4, 2 mM CaCl2, 26.5 mM NaHCO3, 1.25 mM NaH2PO4, 10 mM glucose) at room temperature for at least 1 h before recordings.
For electrophysiological recordings, a single slice was placed in the recording chamber (room temperature), submerged and continuously superfused with gassed aCSF (95% O2, 5% CO2; pH=7.4) at a constant rate (2 mL min^−1) for the reminder of the experiment. Extracellular field excitatory postsynaptic potentials (fEPSPs) were recorded in the CA1 stratum radiatum using a glass micropipette filled with aCSF. fEPSPs were evoked by the electrical stimulation of Schaffer collateral-commissural pathway at 0.1 Hz (i.e., a single pulse every 10 s) with a glass stimulating electrode (borosilicate capillary glass with filament, standard wall; OD: 1.5 mm; ID: 0.86 mm; Length: 75 mm; ref: W3 30-0060 from Harvard Apparatus) placed in the stratum radiatum.
After 10 minutes of stabilization, basal synaptic transmission was assessed. […] This procedure was repeated 3 times, 30 seconds interval for each session. A single session final I/O curve was obtained by plotting the averaged rationalised slopes of fEPSPs as a function of the stimulation intensity.
The signal was amplified with an Axopatch 200B amplifier (Molecular Devices, Union City, CA) digitized by a Digidata 1322A interface (Axon Instruments, Molecular Devices, US) and sampled at 10 kHz. Recordings were acquired using Clampex (Molecular Devices) and analyzed with Clampfit (Molecular Devices).
All data was normalized from the fEPSP maximum slope recorded in control condition (during vehicle bath application). […] Potential outliers were identified for exclusion using the following criteria: >3 standard deviations away from the group mean in either direction.

[2] = system: AMPAr currents in hippocampal CA1 pyramidal neurons; assay: whole-cell patch-clamp, isolated AMPAr EPSCs evoked by Schaffer collateral stimulation (series 2); format: cell-based, C57Bl6/J mice; conditions: after 10 min wash-out of NX218 250 μg/mL (T30); mean of 10 neurons
Text: Twelve (C57Bl6/J) male mice 4-5 weeks-old were obtained from Charles River, France and housed in an animal facility. Animal care was compliant with national and local Ethics committee recommendations. Sagittal hippocampal brain slices were obtained using standard brain slicing methods (approximately 6 slices per mouse) (Knobloch et al. 2007). Mice were anesthetized with isoflurane and then decapitated. Brain was dissected out of the cranium and immediately immersed in ice-cold freshly prepared aCSF containing: 124 mM NaCl, 3.75 mM KCl, 2 mM MgSO4, 2 mM CaCl2, 26.5 mM NaHCO3, 1.25 mM NaH2PO4, 10 mM glucose, continuously oxygenated (pH=7.4) for a total duration of 3-4 minutes. Acute slices (350 μm thick) were prepared using a vibratome (VT 1000S; Leica Microsystems, Bannockburn, IL). Sections were incubated in standard aCSF at room temperature for at least 1 h before recordings. […]
The signal was amplified with an Axopatch 200B amplifier (Molecular Devices, Union City, CA), digitized by a Digidata 1550 interface (Molecular Devices) and […]. Recordings were acquired using Clampex (Molecular Devices) and analyzed with Clampfit (Molecular Devices). […]

## W-S-G-W-S-S-C-S-R-S-C-G [NX218] (WSGWSSCSRSCG; disulfide 7-11 (inferred))
[1]
  change of basal excitatory synaptic transmission vs control condition (whole I/O curve): statistical increase
[1]; stimulation intensity 0 µA
  Normalized fEPSP slope: 0.09%
[1]; stimulation intensity 50 µA
  Normalized fEPSP slope: 30.78%
[1]; stimulation intensity 100 µA
  Normalized fEPSP slope: 71.26%
[1]; stimulation intensity 150 µA
  Normalized fEPSP slope: 110.51%
[1]; stimulation intensity 200 µA
  Normalized fEPSP slope: 134.44%
[1]; stimulation intensity 250 µA
  Normalized fEPSP slope: 149.89%
[1]; stimulation intensity 300 µA
  Normalized fEPSP slope: 156.80%
[1]; stimulation intensity 350 µA
  Normalized fEPSP slope: 160.72%
[1]; stimulation intensity 400 µA
  Normalized fEPSP slope: 164.01%
[1]; stimulation intensity 450 µA
  Normalized fEPSP slope: 164.39%
[1]; stimulation intensity 500 µA
  Normalized fEPSP slope: 166.29%
[1]; stimulation intensity 550 µA
  Normalized fEPSP slope: 167.00%
[1]; stimulation intensity 600 µA
  Normalized fEPSP slope: 167.37%
[1]; stimulation intensity 650 µA
  Normalized fEPSP slope: 168.66%
[1]; stimulation intensity 700 µA
  Normalized fEPSP slope: 169.65%
[1]; stimulation intensity 750 µA
  Normalized fEPSP slope: 169.89%
[1]; stimulation intensity 800 µA
  Normalized fEPSP slope: 170.46%
[1]; stimulation intensity 850 µA
  Normalized fEPSP slope: 171.65%
[2]
  Amplitude of evoked isolated AMPA excitatory postsynaptic currents: 153 pA
